Measured values: patent publication US4426390A, “Novel β-lactam compounds, process for producing thereof, and use thereof as medicines” (Sanraku-Ocean Co., Ltd., priority 1980, dated 1984)
Converted amounts (≈) assume the structure as drawn. Where two headings read alike, the source gives them in different places. Values belong to the molecule of their own block, whether it stands above or below them.

Columns and labels:
Type in all cases: cell-based
[1] = test system: Proteus vulgaris GN76; assay: Synergistic effect on MIC, microdilution transfer plate technique
[2] = test system: Citrobacter Freundii GN346; assay: as above
[3] = test system: Serratia marccscens T55; assay: Disc assay of synergy, inhibition zones; details: for zone of inhibition at 100 µg/mL: Serratia
Experimental: (§1) (B) The presence or absence of synergy is visually checked by the size difference in inhibitory zones observed when the test drug is disc-assayedon an agar plate of a detector microbe and on an agar plate of the detector containing cephaloridine or benzylpenicillin, respectively.
(§2) One loopful of the stock culture of a test organism is inoculated in heat infusion broth (5 ml/tube), and grown at 37° C. for 18 hours. The culture broth is diluted to a final concentration of about 10^5 cells/ml in nutrient agar with or without benzyl penicillin or cephaloridine, and plated in a Petri dish with a diameter of 9 cm, as shown below.
(§3) Using the above-prepared agar plates, antibiotic PS-5 (100 μg/ml), antibiotic OA-6129B2 (5,6-trans OA-6129B) (100 μg/ml), benzylpenicillin (1000 μg/ml) and cephaloridine (1000 μg/ml) are subjected to disc assay.

[4] = test system: Citrobacter Freundii GN346; assay: Disc assay of synergy, inhibition zones; details: for zone of inhibition at 100 µg/mL: Citrobacter freundii
Experimental: as §1, §2, §3

[5] = test system: Proteus vulgaris GN76; assay: Disc assay of synergy, inhibition zones; details: for zone of inhibition at 100 µg/mL: Proteus vulgaris
Experimental: as §1, §2, §3

[6] = test system: Enterobacter cloacac 45; assay: Disc assay of synergy, inhibition zones
Experimental: as §1, §2, §3

[7] = test system: P. rettgeri P7; assay: MIC by agar dilution method; details: Providencia rettgeri; P. rettgeri P7; agar dilution, 37° C., 18 hours; read-out: MIC
Experimental: (§4) The MIC is measured by an agar dilution method based on the standard method of the Japanese Society of Chemotherapy (Japanese Society of Chemotherapy: The Revised Method of Determination of MIC Values, Chemotherapy 22, 1126-1128, […]). Specifically, the antibiotic is serially diluted with a 1/50 M phosphate buffer at a pH of 7.3 to prepare a twofold dilution series. One milliliter of each dilution and 9 ml of an agar medium (Heart Infusion Agar; a product of Difco Laboratories) are mixed and allowed to solidify in a Petri dish having a diameter of 9 cm. One loopful of the stock culture of the test microbe is inoculated in trypto-soy buillon (a product of Eiken Kagaku Co., Ltd.) and incubated at 37° C. for 18 hours. The resulting culture broth is diluted to a concentration of about 10^6 cells/ml with physiological saline and inoculated on the agar plate by means of a microplanter.

[8] = test system: Staphylococcus aureus 209P; assay: MIC by agar dilution method; details: 37° C., 18 hours
Experimental: as §4

[9] = test system: S. aureus Russell; assay: MIC by agar dilution method; details: Staphylococcus aureus; S. aureus Russell; agar dilution, 37° C., 18 hours; read-out: MIC
Experimental: as §4

[10] = test system: Enterobacter aerogenes E19; assay: MIC by agar dilution method; details: Klebsiella aerogenes, 37° C., 18 hours
Experimental: as §4

[11] = test system: Bacillus subtillis ATCC 6633; assay: MIC by agar dilution method; details: Bacillus, ATCC6633, 18 h
Experimental: as §4

[12] = test system: Citrobacter Freundii GN346; assay: MIC by agar dilution method; details: 37° C., 18 hours
Experimental: as §4

[13] = test system: Proteus mirabilis P6; assay: MIC by agar dilution method; details: Proteus mirabilis P6; agar dilution, 37° C., 18 hours; read-out: MIC
Experimental: as §4

[14] = test system: P. vulgaris GN76; assay: MIC by agar dilution method; details: Proteus vulgaris, 37° C., 18 hours
Experimental: as §4

[15] = test system: Ser. marcesceus T55; assay: MIC by agar dilution method; details: 37° C., 18 hours
Experimental: as §4

[16] = test system: Providencia sp. P8; assay: MIC by agar dilution method; details: Providencia sp. P8; agar dilution, 37° C., 18 hours; read-out: MIC
Experimental: as §4

[17] = test system: Ent. cloacae 45; assay: MIC by agar dilution method; details: Enterobacter cloacae, 37° C., 18 hours
Experimental: as §4

[18] = test system: S. aureus Smith; assay: MIC by agar dilution method; details: Staphylococcus aureus, 37° C., 18 hours
Experimental: as §4

[19] = test system: Serratia marcesceus S18; assay: MIC by agar dilution method; details: 37° C., 18 hours
Experimental: as §4

[20] = test system: S. epidermidis; assay: MIC by agar dilution method; details: Staphylococcus epidermidis, 37° C., 18 hours
Experimental: as §4

[21] = test system: Ent. sp. E8; assay: MIC by agar dilution method; details: Ent. sp. E8; agar dilution, 37° C., 18 hours; read-out: MIC
Experimental: as §4

[22] = test system: Sarcina lutea S19; assay: MIC by agar dilution method; details: Micrococcus luteus, 37° C., 18 hours
Experimental: as §4

[23] = test system: Escherichia coli K-12; assay: MIC by agar dilution method; details: K12; Escherichia coli K-12; agar dilution, 37° C., 18 hours; read-out: MIC
Experimental: as §4

[24] = test system: Alcaligenes Faecolis A1; assay: MIC by agar dilution method; details: Alcaligenes Faecolis A1; agar dilution, 37° C., 18 hours; read-out: MIC
Experimental: as §4

[25] = test system: Pseudomonas aenginosa IFO3445; assay: MIC by agar dilution method; details: 37° C., 18 hours
Experimental: as §4

[26] = test system: E. coli RGN823; assay: MIC by agar dilution method; details: Escherichia coli, 37° C., 18 hours
Experimental: as §4

[27] = test system: Klebsiella pneumoniae K13; assay: MIC by agar dilution method; details: 37° C., 18 hours
Experimental: as §4

[28] = test system: Comamonas terrigena B996; assay: MIC by agar dilution method; details: 37° C., 18 hours
Experimental: as §4

[29] = test system: Ps. aeruginosa NCTC10490; assay: MIC by agar dilution method; details: Pseudomonas aeruginosa, 37° C., 18 hours
Experimental: as §4

[30] = plate: + CER, disc OA-6129B2, PS-5 100 μg/ml, CER, PCG 1000 μg/ml
[31] = plate: + PCG, reduced to 5 μg/ml (final concentration), disc OA-6129B2, PS-5 100 μg/ml, CER, PCG 1000 μg/ml
[32] = plate: + PCG, disc OA-6129B2, PS-5 100 μg/ml, CER, PCG 1000 μg/ml

MIC of ABPC in combination ([1]; with OA-6129A 1.56 μg/ml): 3.3 µg/mL
MIC of ABPC in combination ([1]; with OA-6129A 6.25 μg/ml): 39 µg/mL
MIC of ABPC in combination ([1]; with OA-6129A 25 μg/ml): 10 µg/mL
MIC of ABPC in combination ([1]; with OA-6129A 50 μg/ml): < 5 µg/mL
MIC of ABPC in combination ([1]; with OA-6129A […]): 156 µg/mL
MIC of ABPC in combination ([2]; with OA-6129A 6.25 μg/ml): 313 µg/mL
MIC of ABPC in combination ([2]; with OA-6129A 25 μg/ml): < 5 µg/mL
MIC of ABPC in combination ([2]; with OA-6129A 50 μg/ml): < 5 µg/mL
MIC of ABPC in combination ([2]; with OA-6129A […]): 625 µg/mL
Structure (SMILES): CC1(C)S[C@@H]2[C@H](NC(=O)[C@H](N)c3ccccc3)C(=O)N2[C@H]1C(=O)O [ABPC, Aminobenzylpenicillin]

Structure (SMILES): O=C(Cc1cccs1)N[C@@H]1C(=O)N2C(C(=O)[O-])=C(C[n+]3ccccc3)CS[C@H]12 [CER, Cephaloridine]
MIC ([1]; Proteus vulgaris, GN76, alone, heart infusion broth, 10^5 cells/ml): 1250 µg/mL
MIC of CER in combination ([1]; with OA-6129A 1.56 μg/ml): 313 µg/mL
MIC of CER in combination ([1]; with OA-6129A 6.25 μg/ml): 39 µg/mL
MIC of CER in combination ([1]; with OA-6129A 25 μg/ml): < 5 µg/mL
MIC of CER in combination ([1]; with OA-6129A 50 μg/ml): < 5 µg/mL
MIC of CER in combination ([2]; with OA-6129A 1.56 μg/ml): 1250 µg/mL
MIC of CER in combination ([2]; with OA-6129A 6.25 μg/ml): 313 µg/mL
MIC of CER in combination ([2]; with OA-6129A 25 μg/ml): < 5 µg/mL
MIC of CER in combination ([2]; with OA-6129A 50 μg/ml): < 5 µg/mL
zone of inhibition at 100 µg/mL ([3]; T55, read-out: diameter of inhibition zones): 0 mm
diameter of inhibition zones [3, 30]: 0 mm
diameter of inhibition zones [3, 31]: 0 mm
zone of inhibition at 100 µg/mL ([4]; GN346, read-out: diameter of inhibition zones): 0 mm
diameter of inhibition zones [4, 30]: 0 mm
diameter of inhibition zones [4, 32]: 0 mm
zone of inhibition at 100 µg/mL ([5]; GN76, read-out: diameter of inhibition zones): 0 mm
diameter of inhibition zones [5, 30]: 0 mm
diameter of inhibition zones [5, 32]: 0 mm
zone of inhibition at 100 µg/mL ([6]; Enterobacter, 45, read-out: diameter of inhibition zones): 0 mm
diameter of inhibition zones [6, 30]: 0 mm
diameter of inhibition zones [6, 32]: 0 mm

Structure (SMILES): CC(O)[C@H]1C(=O)N2C(C(=O)O)=C(SCCNC(=O)CCNC(=O)C(O)C(C)(C)CO)C[C@H]12 (relative stereo) [OA-6129B2]
zone of inhibition at 100 µg/mL ([3]; T55, plate: None, disc OA-6129B2, PS-5 100 μg/ml, CER, PCG 1000 μg/ml, read-out: diameter of inhibition zones): 12 mm
diameter of inhibition zones [3, 30]: 22.0 mm
diameter of inhibition zones [3, 31]: 12.0 mm
zone of inhibition at 100 µg/mL ([4]; GN346, plate: None, disc OA-6129B2, PS-5 100 μg/ml, CER, PCG 1000 μg/ml, read-out: diameter of inhibition zones): 12 mm
diameter of inhibition zones [4, 30]: 16.0 mm
diameter of inhibition zones [4, 32]: 13.0 mm
zone of inhibition at 100 µg/mL ([5]; GN76, plate: None, disc OA-6129B2, PS-5 100 μg/ml, CER, PCG 1000 μg/ml, read-out: diameter of inhibition zones): 0 mm
diameter of inhibition zones [5, 30]: 20.0 mm
diameter of inhibition zones [5, 32]: 19.5 mm
zone of inhibition at 100 µg/mL ([6]; Enterobacter, 45, plate: None, disc OA-6129B2, PS-5 100 μg/ml, CER, PCG 1000 μg/ml, read-out: diameter of inhibition zones): 10 mm
diameter of inhibition zones [6, 30]: 15.0 mm
diameter of inhibition zones [6, 32]: 12.0 mm
MIC [7]: 25 µg/mL (≈ 52.8 µM)
MIC [8]: 6.25 µg/mL (≈ 13.2 µM)
MIC [9]: 12.5 µg/mL (≈ 26.4 µM)
MIC [10]: 25 µg/mL (≈ 52.8 µM)
MIC [11]: 1.56 µg/mL (≈ 3.29 µM)
MIC [12]: 25 µg/mL (≈ 52.8 µM)
MIC [13]: 50 µg/mL (≈ 106 µM)
MIC [14]: 50 µg/mL (≈ 106 µM)
MIC [15]: 50 µg/mL (≈ 106 µM)
MIC [16]: 6.25 µg/mL (≈ 13.2 µM)
MIC [17]: 50 µg/mL (≈ 106 µM)
MIC [18]: 12.5 µg/mL (≈ 26.4 µM)
MIC [19]: 25 µg/mL (≈ 52.8 µM)
MIC [20]: 12.5 µg/mL (≈ 26.4 µM)
MIC [21]: 25 µg/mL (≈ 52.8 µM)
MIC [22]: 6.25 µg/mL (≈ 13.2 µM)
MIC [23]: 12.5 µg/mL (≈ 26.4 µM)
MIC [24]: 6.25 µg/mL (≈ 13.2 µM)
MIC [25]: > 100 µg/mL
MIC [26]: 12.5 µg/mL (≈ 26.4 µM)
MIC [27]: 12.5 µg/mL (≈ 26.4 µM)
MIC [28]: 0.39 µg/mL (≈ 0.824 µM)
MIC [29]: > 100 µg/mL
